Results as given in PubChem BioAssay AID449760 (The Scripps Research Institute Molecular Screening Center, 2010).
“And” between values parts separate entries of the source, which are not always exact repeats. Equal entries are not always repeated. The source made the active and inactive calls. How the calls were made is not given here.

What follows are compounds tested on NIH 3T3 STAT1-luciferase reporter, IFNg-stimulated, luminescence (assay: STAT1 reporter activators, provider retest, late-stage follow-up, cell-based, luminescence, NIH 3T3, assay provider (AID 449760)). Conditions: at 10 µM; stronger effect = higher value.

Structure (SMILES)	fold change vs IFNg
Cc1ccc(C(=O)Nc2nc3ccccc3s2)s1	1.22 (inactive)
N#C/C(=C\c1ccc(N2CCOCC2)o1)c1nc2ccccc2[nH]1	0.94 (inactive)
CCOC(=O)/C(C#N)=C/c1cc(C)n(-c2ccccc2)c1C	0.028 (inactive)
COc1ccc(-c2cc(C)nc3c(-c4ccccc4)cnn23)cc1	0.36 (inactive) and 0.19 (inactive)
COc1ccc(-c2csc(N3C(=O)CNC3=S)n2)cc1	1.19 (inactive)
Cc1nnc(SCC(=O)Nc2ccc(-c3nc4ccccc4s3)cc2)s1	1 (inactive)
CCN(CC)c1ccc2cc(C(=O)Nc3ccccn3)c(=O)oc2c1	0.41 (inactive)
CC(=O)NC(=S)Nc1sc2c(c1C#N)CCCCC2	0.45 (inactive)
O=C(/C=C/Nc1ccccc1F)c1ccc(Br)cc1	0.87 (inactive)
O=C(Nc1nc2ccccc2s1)c1cc2ccccc2s1	1.02 (inactive)
Cc1cc(-c2ccc(F)cc2)n2ncc(-c3ccccc3)c2n1	0.09 (inactive)
COc1ccc2[nH]c3c(c2c1)CCn1c-3nc2ccccc2c1=O	0.94 (inactive)
